Experimental findings from ChEMBL document CHEMBL5385939, “Novel ether derivatives of 11-azaartemisinins with high order antimalarial activity against multidrug-resistant Plasmodium yoelii in Swiss mice” (2024) are described below.

Calls of active or inactive are those of the source. The rule behind the calls is not given here.

Experiment [1] relates to Plasmodium yoelii. Kind of experiment: Antimalarial activity against multidrug resistant Plasmodium yoelii infected in swiss mouse assessed as increase in survival time at 12 mg/kg, IM administered for 4 days and measured on day 28. The format is functional, organism-based. Particulars: time 28.0 day.
For experiment [2], the system named is Plasmodium yoelii. The experiment is described as follows: Antimalarial activity against multidrug resistant Plasmodium yoelii infected in swiss mouse assessed as reduction in parasitaemia at 6 mg/kg, IM administered for 4 days. On the set-up: scale not given: the % may be the effect or the level left. Conditions: time 4 day. The format is functional.
Experiment [3] deals with Plasmodium yoelii. The experiment is described as follows: Antimalarial activity against multidrug resistant Plasmodium yoelii infected in swiss mouse assessed as reduction in parasitaemia at 24 mg/kg, po administered for 4 days. Type of experiment: functional. On the set-up: scale not given: the % may be the effect or the level left. Conditions: time 4 day.
Experiment [4] deals with Plasmodium yoelii. The experiment is described as follows: Antimalarial activity against multidrug resistant Plasmodium yoelii infected in swiss mouse assessed as reduction in parasitaemia at 12 mg/kg, IM administered for 4 days. Type of experiment: functional. On the set-up: scale not given: the % may be the effect or the level left. Particulars: time 4 day.
Experiment [5] relates to Plasmodium yoelii. The experiment is described as follows: Antimalarial activity against multidrug resistant Plasmodium yoelii infected in swiss mouse assessed as increase in survival time at 24 mg/kg, po administered for 4 days and measured on day 28. Type of experiment: functional, organism-based. Conditions: time 28.0 day.
The subject of experiment [6] is Plasmodium yoelii. Kind of experiment: Antimalarial activity against multidrug resistant Plasmodium yoelii infected in swiss mouse assessed as increase in survival time at 48 mg/kg, po administered for 4 days and measured on day 28. Particulars: time 28.0 day. The format is functional, organism-based.
Experiment [7] has as its system Plasmodium yoelii. Kind of experiment: Antimalarial activity against multidrug resistant Plasmodium yoelii infected in swiss mouse assessed as increase in survival time at 3 mg/kg, IM administered for 4 days and measured on day 28. Type of experiment: functional, organism-based. Particulars: time 28.0 day.
Experiment [8] has as its system Plasmodium yoelii. The experiment is described as follows: Antimalarial activity against multidrug resistant Plasmodium yoelii infected in swiss mouse assessed as reduction in parasitaemia at 3 mg/kg, IM administered for 4 days. The format is functional. Further details: scale not given: the % may be the effect or the level left. Particulars: time 4 day.
Experiment [9] has as its system Plasmodium yoelii. The experiment is described as follows: Antimalarial activity against multidrug resistant Plasmodium yoelii infected in swiss mouse assessed as increase in survival time at 6 mg/kg, IM administered for 4 days and measured on day 28. Type of experiment: functional, organism-based. Conditions: time 28.0 day.
Experiment [10] deals with Plasmodium yoelii. The experiment is described as follows: Antimalarial activity against multidrug resistant Plasmodium yoelii infected in swiss mouse assessed as increase in survival time at 24 mg/kg, IM administered for 4 days and measured on day 28. The format is functional, organism-based. Particulars: time 28.0 day.
In experiment [11] the test system is Plasmodium yoelii. Kind of experiment: Antimalarial activity against multidrug resistant Plasmodium yoelii infected in swiss mouse assessed as reduction in parasitaemia at 24 mg/kg, IM administered for 4 days. Type of experiment: functional. On the set-up: scale not given: the % may be the effect or the level left. Particulars: time 4 day.
Experiment [12] concerns Plasmodium yoelii. Kind of experiment: Antimalarial activity against multidrug resistant Plasmodium yoelii infected in swiss mouse assessed as reduction in parasitaemia at 12 mg/kg, po administered for 4 days. Type of experiment: functional. Further details: scale not given: the % may be the effect or the level left. Conditions: time 4 day.
Experiment [13] has as its system Plasmodium yoelii. Kind of experiment: Antimalarial activity against multidrug resistant Plasmodium yoelii infected in swiss mouse assessed as increase in survival time at 12 mg/kg, po administered for 4 days and measured on day 28. Conditions: time 28.0 day. The format is functional, organism-based.
Experiment [14] deals with Plasmodium yoelii. Kind of experiment: Antimalarial activity against multidrug resistant Plasmodium yoelii infected in swiss mouse assessed as reduction in parasitaemia at 48 mg/kg, IM administered for 4 days. The format is functional. Further details: scale not given: the % may be the effect or the level left. Conditions: time 4 day.
Experiment [15] has as its system Plasmodium yoelii. The experiment is described as follows: Antimalarial activity against multidrug resistant Plasmodium yoelii infected in swiss mouse assessed as increase in survival time at 48 mg/kg, IM administered for 4 days and measured on day 28. Type of experiment: functional, organism-based. Particulars: time 28.0 day.
The test system of experiment [16] is Plasmodium yoelii. The experiment is described as follows: Antimalarial activity against multidrug resistant Plasmodium yoelii infected in swiss mouse assessed as reduction in parasitaemia at 48 mg/kg, po administered for 4 days. Further details: scale not given: the % may be the effect or the level left. The format is functional. Particulars: time 4 day.

On to `C[C@@H]1CC[C@H]2[C@@H](C)C(=O)N(CCOCCCc3ccccc3)[C@@H]3O[C@]4(C)CC[C@@H]1[C@@]23OO4`, for which the outcome with Plasmodium yoelii [1] was inactive. Moreover, the results for the Activity in the experiment with Plasmodium yoelii [2], with Plasmodium yoelii [3] and in the experiment with Plasmodium yoelii [4] were 100%, 100% and 91%, respectively.

Regarding `C[C@@H]1CC[C@H]2[C@@H](C)C(=O)N(OCCCc3ccccc3)[C@@H]3O[C@@]4(C)CC[C@@H]1[C@@]23OO4`, the outcome in the experiment on Plasmodium yoelii [1] and with Plasmodium yoelii [5] was inactive. Further, the results for the Activity in the experiment on Plasmodium yoelii [3] and with Plasmodium yoelii [4] were 94% and 81%, respectively.

Turning to `C[C@@H]1CC[C@H]2[C@@H](C)C(=O)N(OCc3ccc([N+](=O)[O-])cc3)[C@@H]3O[C@@]4(C)CC[C@@H]1[C@@]23OO4`, the Activity with Plasmodium yoelii [3] and with Plasmodium yoelii [4] was 100% in each case.

For the compound `CCOC1O[C@@H]2O[C@@]3(C)CC[C@H]4[C@H](C)CC[C@@H]([C@H]1C)[C@@]24OO3` (stereo partly specified), the result in the experiment with Plasmodium yoelii [1], with Plasmodium yoelii [6] and in the experiment with Plasmodium yoelii [9] was Active. The Activity with Plasmodium yoelii [2], in the experiment on Plasmodium yoelii [3], with Plasmodium yoelii [8] and in the experiment with Plasmodium yoelii [4] was 100% throughout. Further, in the experiment on Plasmodium yoelii [7], the outcome was inactive.

On to `C[C@@H]1CC[C@H]2[C@@H](C)C(=O)N(CCOCc3ccc(-c4ccccc4)cc3)[C@@H]3O[C@@]4(C)CC[C@@H]1[C@@]23OO4`, for which the Activity in the experiment on Plasmodium yoelii [3] and in the experiment on Plasmodium yoelii [4] was 100% each time.

Take `C[C@@H]1CC[C@H]2[C@@H](C)C(=O)N(CCOCc3ccccc3)[C@@H]3O[C@]4(C)CC[C@@H]1[C@@]23OO4`: in the experiment with Plasmodium yoelii [1], the outcome was Active. For the same compound, the Activity in the experiment on Plasmodium yoelii [2], with Plasmodium yoelii [3] and with Plasmodium yoelii [4] was 100% throughout. Moreover, in the experiment on Plasmodium yoelii [9], the result was inactive.

Consider `C[C@@H]1CC[C@H]2[C@@H](C)C(=O)N(N)[C@@H]3O[C@@]4(C)CC[C@@H]1[C@@]23OO4`, for which the result with Plasmodium yoelii [10] and in the experiment on Plasmodium yoelii [13] was inactive. The values for the Activity with Plasmodium yoelii [11], in the experiment with Plasmodium yoelii [12] and in the experiment with Plasmodium yoelii [3] were 100%, 99% and 100%, respectively.

`C[C@@H]1CC[C@H]2[C@@H](C)C(=O)N(O)[C@@H]3O[C@@]4(C)CC[C@@H]1[C@@]23OO4`: the Activity in the experiment with Plasmodium yoelii [14] is given as 78%. Also, the result in the experiment with Plasmodium yoelii [15] was inactive.

For the compound `C[C@@H]1CC[C@H]2[C@@H](C)C(=O)N(NCc3ccc(Br)cc3)[C@@H]3O[C@@]4(C)CC[C@@H]1[C@@]23OO4`, the Activity in the experiment with Plasmodium yoelii [3] and in the experiment with Plasmodium yoelii [4] was 100% each time.

Take `C[C@@H]1CC[C@H]2[C@@H](C)C(=O)N(CCOCc3ccccc3F)[C@@H]3O[C@@]4(C)CC[C@@H]1[C@@]23OO4`: the Activity in the experiment on Plasmodium yoelii [3] and with Plasmodium yoelii [4] was 100% in each case.

Turning to `C[C@@H]1CC[C@H]2[C@@H](C)C(=O)N(CCO)[C@@H]3O[C@@]4(C)CC[C@@H]1[C@@]23OO4`, the outcome in the experiment on Plasmodium yoelii [6] was inactive. The Activity in the experiment on Plasmodium yoelii [3] amounted to 10%; with Plasmodium yoelii [14] it was 100%; with Plasmodium yoelii [16], 100%.

For `C[C@@H]1CC[C@H]2[C@@H](C)C(=O)N(CCOCc3ccc([N+](=O)[O-])cc3)[C@@H]3O[C@@]4(C)CC[C@@H]1[C@@]23OO4`, the result with Plasmodium yoelii [1] was Active. The result in the experiment with Plasmodium yoelii [5] and in the experiment on Plasmodium yoelii [9] was inactive. Further, the Activity was found to be 100% in the experiment with Plasmodium yoelii [2], 90% in the experiment with Plasmodium yoelii [3] and 100% with Plasmodium yoelii [4].
